Publication PMC11284788, “NN1213 – A Potent, Long-Acting, and Selective Analog of Human Amylin” (Journal of Medicinal Chemistry, 2024)
Numbered stars: 1 amine (or outer) side, 2 acyl side, 3 side chain; on linkers, the order of the positions; unused ones are H or OH. Bridge positions count the residues as written; N and C are the ends. Side chains are listed from the residue outwards. Peptide text beside a SMILES is read from it. * marks the point of attachment. C20 diacid = O=C(O)CCCCCCCCCCCCCCCCCCC(=O)*; γGlu = O=C(O)[C@H](CCC(=O)[*:2])N[*:1]; AEEA = NCCOCCOCC(=O)O

How the values were obtained:
[1] = ThT assay: fibril formation propensity and peptide recovery; format: physicochemical; settings: for ThT, pH 4.0 lag-time: 250 μM peptide, 10 mM glycylglycine pH 4.0, 1 μM ThT, 37 °C, 960 rpm, 45 h, lowest of four replicas, average of experiments; for recovery: pH 4.0, residual dissolved peptide after 45 h of shaking, centrifugation and 0.22 μm filtration, HPLC, relative to amount before stress
Procedure, shortened: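 Fibrillation lag time is read visually from ThT fluorescence-time curves (444/485 nm, 20-min reads, 45 h, 37 °C, 960 rpm shaking) of 250 μM peptide with 1 μM ThT at pH 4.0 or 7.5. The most conservative of four replicates is used. Peptide recovery is post-stress soluble peptide (HPLC, 215/276 nm) as fraction of initial.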

[2] = HMWP content by size-exclusion chromatography; format: physicochemical; settings: analogs 10–21 (pH 4.0 series); covalent dimers and polymers prior to fibril formation testing, SEC, % of total absorbance area at 215 nm
Procedure, shortened: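 HMWP percentage is the covalent dimer/polymer peak area relative to total absorbance area, with extinction coefficients taken as equal to the main peak. Isocratic size-exclusion elution used 50% (v/v) 2-propanol containing 0.5 M NaCl and phosphate buffer; measured on analogs prior to fibril assays.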

SMILES	ThT, pH 4.0 lag-time [1]	recovery [1]	HMWP [2]
CC[C@H](C)[C@H](NC(=O)[C@H](C)NC(=O)CNC(=O)[C@H](Cc1ccccc1)NC(=O)[C@H](CC(N)=O)NC(=O)[C@@H]1CCCN1C(=O)[C@H](CO)NC(=O)[C@H](CO)NC(=O)[C@H](Cc1c[nH]cn1)NC(=O)[C@H](CCCNC(=N)N)NC(=O)[C@H](CC(C)C)NC(=O)[C@H](Cc1ccccc1)NC(=O)[C@H](CC(N)=O)NC(=O)[C@H](C)NC(=O)[C@H](CC(C)C)NC(=O)[C@H](CCCNC(=N)N)NC(=O)[C@H](CCC(N)=O)NC(=O)[C@@H](NC(=O)[C@H](C)NC(=O)[C@@H]1CSSC[C@H](NC(=O)[C@H](CCCCN)NC(=O)CC[C@H](NC(=O)CCCCCCCCCCCCCCCCCCC(=O)O)C(=O)O)C(=O)N[C@@H](CC(N)=O)C(=O)N[C@@H]([C@@H](C)O)C(=O)N[C@@H](C)C(=O)N[C@@H]([C@@H](C)O)C(=O)N1)[C@@H](C)O)C(=O)N1CCC[C@H]1C(=O)N[C@@H](CO)C(=O)N[C@@H](CO)C(=O)N[C@H](C(=O)N[C@@H](CC(N)=O)C(=O)N[C@H](C(=O)NCC(=O)N[C@@H](CCCNC(=N)N)C(=O)N[C@@H](CC(N)=O)C(=O)N[C@H](C(=O)N[C@@H](Cc1ccc(O)cc1)C(N)=O)[C@@H](C)O)C(C)C)[C@@H](C)O [Peptide 16]	>45 h	100%	2.2%
CC[C@H](C)[C@H](NC(=O)[C@H](C)NC(=O)CNC(=O)[C@H](Cc1ccccc1)NC(=O)[C@H](CC(N)=O)NC(=O)[C@@H]1CCCN1C(=O)[C@H](CO)NC(=O)[C@H](CO)NC(=O)[C@H](Cc1c[nH]cn1)NC(=O)[C@H](CCCNC(=N)N)NC(=O)[C@H](CC(C)C)NC(=O)[C@H](Cc1ccccc1)NC(=O)[C@H](CC(N)=O)NC(=O)[C@H](C)NC(=O)[C@H](CC(C)C)NC(=O)[C@H](CCCNC(=N)N)NC(=O)[C@H](CCC(N)=O)NC(=O)[C@@H](NC(=O)[C@H](C)NC(=O)[C@@H]1CSSC[C@H](NC(=O)[C@H](CCCCN)NC(=O)CC[C@H](NC(=O)CCCCCCCCCCCCCCCCCCC(=O)O)C(=O)O)C(=O)N[C@@H](CC(N)=O)C(=O)N[C@@H]([C@@H](C)O)C(=O)N[C@@H](C)C(=O)N[C@@H]([C@@H](C)O)C(=O)N1)[C@@H](C)O)C(=O)N1CCC[C@H]1C(=O)N[C@@H](CO)C(=O)N[C@@H](CO)C(=O)N[C@H](C(=O)N[C@@H](CC(N)=O)C(=O)N[C@H](C(=O)NCC(=O)N[C@@H](Cc1c[nH]cn1)C(=O)N[C@@H](CC(N)=O)C(=O)N[C@H](C(=O)N[C@@H](Cc1ccc(O)cc1)C(N)=O)[C@@H](C)O)C(C)C)[C@@H](C)O [Peptide 17]	26 h	92%	1.7%
CC[C@H](C)[C@H](NC(=O)[C@H](C)NC(=O)CNC(=O)[C@H](Cc1ccccc1)NC(=O)[C@H](CC(N)=O)NC(=O)[C@@H]1CCCN1C(=O)[C@H](CO)NC(=O)[C@H](CO)NC(=O)[C@H](Cc1c[nH]cn1)NC(=O)[C@H](CCCNC(=N)N)NC(=O)[C@H](CC(C)C)NC(=O)[C@H](Cc1ccccc1)NC(=O)[C@H](CCC(=O)O)NC(=O)[C@H](C)NC(=O)[C@H](CC(C)C)NC(=O)[C@H](CCCNC(=N)N)NC(=O)[C@H](CCC(N)=O)NC(=O)[C@@H](NC(=O)[C@H](C)NC(=O)[C@@H]1CSSC[C@H](NC(=O)[C@@H](N)CCCCNC(=O)CC[C@H](NC(=O)CCCCCCCCCCCCCCCCCCC(=O)O)C(=O)O)C(=O)N[C@@H](CC(N)=O)C(=O)N[C@@H]([C@@H](C)O)C(=O)N[C@@H](C)C(=O)N[C@@H]([C@@H](C)O)C(=O)N1)[C@@H](C)O)C(=O)N1CCC[C@H]1C(=O)N[C@@H](CO)C(=O)N[C@@H](CO)C(=O)N[C@H](C(=O)N[C@@H](CC(N)=O)C(=O)N[C@H](C(=O)NCC(=O)N[C@@H](CO)C(=O)N[C@@H](CCCNC(=N)N)C(=O)N[C@H](C(=O)N[C@@H](Cc1ccc(O)cc1)C(N)=O)[C@@H](C)O)C(C)C)[C@@H](C)O [Peptide 20] (H-K([γGlu-C20 diacid])CNTATCATQRLAEFLRHSSPNFGAIPSSTNVGSRTY-NH2; disulfide 2-7)	7 h	91%	4.9%

Continued, values first:

ThT, pH 4.0 lag-time [1]	recovery [1]	HMWP [2]	SMILES
15 h	30%	3.5%	CC[C@H](C)[C@H](NC(=O)[C@H](C)NC(=O)CNC(=O)[C@H](Cc1ccccc1)NC(=O)[C@H](CC(N)=O)NC(=O)[C@@H]1CCCN1C(=O)[C@H](CO)NC(=O)[C@H](CO)NC(=O)[C@H](Cc1c[nH]cn1)NC(=O)[C@H](CCCNC(=N)N)NC(=O)[C@H](CC(C)C)NC(=O)[C@H](Cc1ccccc1)NC(=O)[C@H](CC(N)=O)NC(=O)[C@H](C)NC(=O)[C@H](CC(C)C)NC(=O)[C@H](CCCNC(=N)N)NC(=O)[C@H](CCC(N)=O)NC(=O)[C@@H](NC(=O)[C@H](C)NC(=O)[C@@H]1CSSC[C@H](NC(=O)[C@H](CCCCN)NC(=O)COCCOCCNC(=O)CC[C@H](NC(=O)CCCCCCCCCCCCCCCCCCC(=O)O)C(=O)O)C(=O)N[C@@H](CC(N)=O)C(=O)N[C@@H]([C@@H](C)O)C(=O)N[C@@H](C)C(=O)N[C@@H]([C@@H](C)O)C(=O)N1)[C@@H](C)O)C(=O)N1CCC[C@H]1C(=O)N[C@@H](CO)C(=O)N[C@@H](CO)C(=O)N[C@H](C(=O)N[C@@H](CC(N)=O)C(=O)N[C@H](C(=O)NCC(=O)N[C@@H](CO)C(=O)N[C@@H](Cc1c[nH]cn1)C(=O)N[C@H](C(=O)N[C@@H](Cc1ccc(O)cc1)C(N)=O)[C@@H](C)O)C(C)C)[C@@H](C)O [Peptide 18] ({C20 diacid-γGlu-AEEA}-KCNTATCATQRLANFLRHSSPNFGAIPSSTNVGSHTY-NH2; disulfide 2-7; N-terminus assumed)
>45 h	84%	0.3%	CC[C@H](C)[C@H](NC(=O)[C@H](C)NC(=O)CNC(=O)[C@H](Cc1ccccc1)NC(=O)[C@H](CC(N)=O)NC(=O)[C@@H]1CCCN1C(=O)[C@H](CO)NC(=O)[C@H](CO)NC(=O)[C@H](Cc1c[nH]cn1)NC(=O)[C@H](CCCNC(=N)N)NC(=O)[C@H](CC(C)C)NC(=O)[C@H](Cc1ccccc1)NC(=O)[C@H](CC(N)=O)NC(=O)[C@H](C)NC(=O)[C@H](CC(C)C)NC(=O)[C@H](CCCNC(=N)N)NC(=O)[C@H](CCC(N)=O)NC(=O)[C@@H](NC(=O)[C@H](C)NC(=O)[C@@H]1CSSC[C@H](NC(=O)[C@H](CCCNC(=N)N)NC(=O)CNC(=O)CC[C@H](NC(=O)CCCCCCCCCCCCCCCCCCC(=O)O)C(=O)O)C(=O)N[C@@H](CC(N)=O)C(=O)N[C@@H]([C@@H](C)O)C(=O)N[C@@H](C)C(=O)N[C@@H]([C@@H](C)O)C(=O)N1)[C@@H](C)O)C(=O)N1CCC[C@H]1C(=O)N[C@@H](CO)C(=O)N[C@@H](CO)C(=O)N[C@H](C(=O)N[C@@H](CC(N)=O)C(=O)N[C@H](C(=O)NCC(=O)N[C@@H](CO)C(=O)N[C@@H](Cc1c[nH]cn1)C(=O)N[C@H](C(=O)N[C@@H](Cc1ccc(O)cc1)C(N)=O)[C@@H](C)O)C(C)C)[C@@H](C)O [Peptide 19] ({C20 diacid-γGlu}-GRCNTATCATQRLANFLRHSSPNFGAIPSSTNVGSHTY-NH2; disulfide 3-8)
